Where “and” joins values, the source holds several entries; their conditions need not be identical. Identical values can stand only once.

These results are taken from article PMC5108564, “Use of ferrous iron by metallo-β-lactamases” (Journal of Inorganic Biochemistry, 2016).

Series [1] deals with T1, di-Zn(II) BcII (Bacillus cereus, UniProt P04190).
T1 construct: made in house; host or cells: E. coli BL21(DE3)pLysS
The experiment in a line: Inhibition assay with nitrocefin as reporter substrate. The format is biochemical. How it is done:
(§1) Enzyme concentrations were the same as those employed in equilibrium kinetic studies. […] Residual enzyme activity was determined for a range of inhibitor concentrations. Non-linear regression fitting of IC50 curves was carried out using a three-parameter dose-response curve in GraphPad Prism. Errors are expressed as: σlogIC50/logIC50×IC50 .
(§2) MBL inhibition is a current target for medicinal chemistry, [63]. Given the observed differences in metal binding geometries between the di-Fe(II) and di-Zn(II) form of BcII and in the kinetic properties of di-Fe(II) BcII and VIM-2 compared to their di-Zn(II) enzymes, we then investigated whether the two metal-substituted BcII enzymes might respond differently to known MBL inhibitors (Table 3 and Fig. S12). We were particularly interested to see if the two enzyme forms responded differently to thiol-based MBL inhibitors, since the sulfur often bridges the two metal centres as an analogue of the bridging water during inhibition, [64].

The target in series [2] is T2, di-Fe(II) BcII (Bacillus cereus, UniProt P04190).
T2 construct: made in house; host or cells: E. coli BL21(DE3)pLysS
T2 sequence (P04190 31-257): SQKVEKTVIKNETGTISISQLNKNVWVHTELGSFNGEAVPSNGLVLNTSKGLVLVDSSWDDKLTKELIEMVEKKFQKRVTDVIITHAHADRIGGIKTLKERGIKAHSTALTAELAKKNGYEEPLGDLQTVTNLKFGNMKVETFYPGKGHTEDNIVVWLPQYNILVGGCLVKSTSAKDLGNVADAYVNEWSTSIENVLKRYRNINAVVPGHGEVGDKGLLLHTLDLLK
The description is as above. It counts as biochemical. How it is done: as §1, §2

For series [3], the target named is T3, di-Fe(II) VIM-2 (Pseudomonas aeruginosa, UniProt Q9K2N0). Conditions: meropenem as substrate, VIM-2 Fe(II), [E] 30 nM, low O2.
Method: (§5) Steady-state kinetic studies were carried out using a Pherastar FS microplate reader and UV-Star 96 well clear microplates (Greiner Bio-One). Samples of 1 mM apo-enzyme were pre-incubated with two equivalents of TCEP·HCl for 5 min prior to addition of 3.5 equivalents of the desired metal before dilution to concentrations required for kinetic assays. For Fe(II)-substituted enzymes, plates were prepared at ≤ 2 ppm O2 using deoxygenated buffer and sealed prior to absorbance readings. […] Substrate concentrations ranged between 400 μM and 0.4 μM. The Michaelis-Menten equation was fitted to data by non-linear regression using GraphPad Prism software to calculate the Michaelis-Menten constant and the limiting rate [43].
Series [4] concerns the target T4, di-Zn(II) VIM-2 (Pseudomonas aeruginosa, UniProt Q9K2N0). Conditions: meropenem as substrate, VIM-2 Zn(II), [E] 5 nM.
Method: as §5
In series [5] the target is T1, di-Zn(II) BcII. The experiment in a line: Stopped-flow UV/Vis absorption kinetics of nitrocefin hydrolysis. The format is biochemical. Conditions: for Substrate Decay: 1:1 enzyme:nitrocefin, 5 °C; for Product accumulation: 1:1, 5 °C. As for the experimental part:
(§3) All metal solutions and metal-substituted enzymes for stopped-flow kinetics were prepared at ≤ 40 ppm O2 using deoxygenated buffers. Buffers used were: 50 mM HEPES pH 7.5, 200 mM NaCl; 50 mM MES pH 6.5, 200 mM NaCl; 50 mM MES pH 5.5, 200 mM NaCl. All buffers were treated with Chelex 100 to remove residual metal ions. Aliquots of apo-enzyme were diluted to 100 μM by addition of reaction buffer (1 mL final volume). The enzyme was incubated with two equivalents of tris(2-carboxyethyl)phosphine hydrochloride salt (TCEP·HCl), by addition of 2 μL of a 100 mM stock, for 5 min. Metal-substituted enzymes were then produced by the addition of 3.5 equivalents of metal salt to the apo-enzyme (3.5 μL of a 100 mM stock in buffer). […] Spectra were recorded over 100 s using a photodiode-array detector. Subsequent analysis of kinetic traces was carried out using Origin 8.5 [41]. Curves corresponding to substrate depletion (390 nm) and product accumulation (485 nm) were fitted by a single exponential function, whilst 665 nm features were fitted by a double exponential function.
(§4) Note that difference spectra were employed to identify the λmax of the feature and indicate that the feature corresponds to an independent species. […] Thus the observation of a visible reaction intermediate absorbing at 665 nm depends on the particular metal-enzyme combination employed.

Series [6] addresses T3, di-Fe(II) VIM-2. Described as above. Conditions: 1:1, 5 °C. It counts as biochemical. More on the design: His-tag (3C protease site) (N, cleaved yes); made in house; host or cells: E. coli BL21(DE3)pLysS. How it is done: as §3, §4
The target in series [7] is T4, di-Zn(II) VIM-2. Described as above. It counts as biochemical. More on the design: His-tag (3C protease site) (N, cleaved yes); made in house; host or cells: E. coli BL21(DE3)pLysS. Conditions: 1:1, 5 °C. As for the experimental part: as §3, §4
In series [8] the target is T2, di-Fe(II) BcII. Described as above. Conditions: for Substrate Decay / Product accumulation / Intermediate Decay / Intermediate accumulation: Fe(II), 1:1, 5 °C; for k1: 50 µM enzyme, 50 µM nitrocefin. The format is biochemical. More on the design: k1 / k-1 / k2 / k3 / k4 / k5: unit not given here. How it is done:
as §3, §4
The observation of an intermediate at 665 nm with di-Fe(II) BcII strongly correlates with increasing pH, with a larger change in absorbance amplitude at pH 7.5 (ΔAbsmax at pH 7.5 is 0.25 compared to ΔAbsmax at pH 6.5 and 5.5 of 0.15 and 0.05, respectively, Fig. 2 & Figs. S4–5). […] Data fitting using the Kintek Explorer package was unable to distinguish between linear and branched pathways (Fig. S11), but in both fittings the decay of the intermediate species was identified as the rate-limiting step (k3 and k4 in Tables S4 and S5, respectively). Although intermediate decay is apparently rate limiting, a negligible amount of intermediate is seen at pH 5.5. This may be explained either by a branched pathway, in which the branch with no intermediate is favoured by lower pH, or by a linear pathway in which the rate of decay of the intermediate rises with a decrease in pH thus preventing an observable accumulation of intermediate.

In series [9] the test system is O=C(Cc1cccs1)N[C@@H]1C(=O)N2C(C(=O)O)=C(/C=C/c3ccc([N+](=O)[O-])cc3[N+](=O)[O-])CS[C@H]12. Nature of the series: purified protein, by the assay type. Conditions: other: nitrocefin as substrate.
Series [10] has as its system C[C@@H](O)[C@H]1C(=O)N2C(C(=O)O)=C(S[C@@H]3CN[C@H](C(=O)N(C)C)C3)[C@H](C)[C@H]12. The experiment in a line: purified protein, by the assay type. Conditions: other: meropenem as substrate, [E] 2 nM.
Method: as §5
The mark [11] stands for this setting: Kintek Explorer fit, branched mechanism, pH 7.5, 5°C.
Where [12] appears, read: Kintek Explorer fit, linear mechanism, pH 7.5, 5°C.

T1 sequence (P04190 31-257): as above

The term IC50 denotes the concentration at which inhibition is half-maximal. With `O=C(O)CN(CCN(CC(=O)O)CC(=O)O)CC(=O)O` [EDTA], the values for the IC50 on di-Zn(II) BcII [1] and on di-Fe(II) BcII [2] were 7500 ± 300 µM and 4700 ± 100 µM, respectively.

Consider `O=C(O)/C(S)=C/c1c(Cl)ccc(Cl)c1Cl` [ML302F], for which the IC50 at di-Zn(II) BcII [1] amounted to 0.046 ± 0.001 µM; on di-Fe(II) BcII [2], 0.38 ± 0.08 µM. Besides, the “fold difference in IC50” value on di-Fe(II) BcII [2] (di-Fe(II) BcII versus di-Zn(II) BcII) is recorded as about 10 fold.

In the case of `O=C(O)C(S)c1ccccc1` (stereo not shown) [Thiomandelic acid], the IC50 came to 1.3 ± 0.3 µM at di-Zn(II) BcII [1] and 2.8 ± 0.8 µM against di-Fe(II) BcII [2].

The term Km denotes the substrate concentration at which the rate is half of its maximum. Broadly, the kcat is the maximal rate divided by the concentration of active sites. On to `C[C@@H](O)[C@H]1C(=O)N2C(C(=O)O)=C(S[C@@H]3CN[C@H](C(=O)N(C)C)C3)[C@H](C)[C@H]12` [meropenem], for which, at di-Fe(II) VIM-2 [3], the Km came to 16 ± 2 µM and the kcat was determined as 0.5 ± 0.0 s⁻¹. Also, on di-Zn(II) VIM-2 [4], the Km was found to be 10 ± 2 µM and the kcat was determined as 2.4 ± 0.1 s⁻¹.

As for `O=C(Cc1cccs1)N[C@@H]1C(=O)N2C(C(=O)O)=C(/C=C/c3ccc([N+](=O)[O-])cc3[N+](=O)[O-])CS[C@H]12` [nitrocefin], the Substrate Decay was 4.16 s⁻¹ and 4.16 ± 0.01 s⁻¹ on di-Zn(II) BcII [5] (pH 5.5, 390 nm); 3.24 ± 0.01 s⁻¹ at di-Zn(II) BcII [5] (pH 6.5, 390 nm); 2.55 s⁻¹ and 2.55 ± 0.01 s⁻¹ at di-Zn(II) BcII [5] (pH 7.5, 390 nm); 35 s⁻¹ and 35 ± 1 s⁻¹ on di-Fe(II) VIM-2 [6] (pH 5.5, 390 nm); 0.24 s⁻¹ and 0.24 ± 0.01 s⁻¹ on di-Fe(II) VIM-2 [6] (pH 6.5, 390 nm); 0.15 s⁻¹ and 0.15 ± 0.01 s⁻¹ at di-Fe(II) VIM-2 [6] (pH 7.5, 390 nm). For the same molecule, the “Substrate Decay” value was 190 s⁻¹ and 190 ± 4 s⁻¹ at di-Zn(II) VIM-2 [7] (pH 5.5, 390 nm); 290 ± 10 s⁻¹ at di-Zn(II) VIM-2 [7] (pH 6.5, 390 nm); 320 s⁻¹ and 320 ± 30 s⁻¹ on di-Zn(II) VIM-2 [7] (pH 7.5, 390 nm); 3.88 s⁻¹ and 3.88 ± 0.01 s⁻¹ at di-Fe(II) BcII [8] (pH 5.5, 390 nm); 5.25 ± 0.01 s⁻¹ at di-Fe(II) BcII [8] (pH 6.5, 390 nm); 7.25 s⁻¹ and 7.25 ± 0.01 s⁻¹ on di-Fe(II) BcII [8] (pH 7.5, 390 nm). Further, the Product accumulation was found to be 4.13 ± 0.01 s⁻¹ on di-Zn(II) BcII [5] (pH 5.5, 485 nm); 3.29 ± 0.01 s⁻¹ on di-Zn(II) BcII [5] (pH 6.5, 485 nm); 2.75 ± 0.01 s⁻¹ at di-Zn(II) BcII [5] (pH 7.5, 485 nm); 23.4 ± 0.5 s⁻¹ on di-Fe(II) VIM-2 [6] (pH 5.5, 485 nm); 0.44 ± 0.01 s⁻¹ at di-Fe(II) VIM-2 [6] (pH 6.5, 485 nm); 0.35 ± 0.01 s⁻¹ at di-Fe(II) VIM-2 [6] (pH 7.5, 485 nm). Besides, the “Product accumulation” value on di-Zn(II) VIM-2 [7] (pH 5.5, 485 nm) turned out to be 93 ± 2 s⁻¹; on di-Zn(II) VIM-2 [7] (pH 6.5, 485 nm), 130 ± 4 s⁻¹; on di-Zn(II) VIM-2 [7] (pH 7.5, 485 nm), 140 ± 5 s⁻¹; at di-Fe(II) BcII [8] (pH 5.5, 485 nm) it was 5.78 ± 0.01 s⁻¹; at di-Fe(II) BcII [8] (pH 6.5, 485 nm) it was 4.27 ± 0.01 s⁻¹; on di-Fe(II) BcII [8] (pH 7.5, 485 nm) it was 7.20 ± 0.01 s⁻¹. Besides, the “Intermediate Decay” value at di-Zn(II) VIM-2 [7] (pH 5.5, 665 nm) was 120 ± 10 s⁻¹; on di-Zn(II) VIM-2 [7] (pH 6.5, 665 nm) it was 160 ± 30 s⁻¹; at di-Zn(II) VIM-2 [7] (pH 7.5, 665 nm), 180 ± 50 s⁻¹; at di-Fe(II) BcII [8] (pH 6.5, 665 nm), 1.2 ± 0.1 s⁻¹; at di-Fe(II) BcII [8] (pH 7.5, 665 nm), 1.4 ± 0.1 s⁻¹. For the same molecule, the “Intermediate accumulation” value at di-Zn(II) VIM-2 [7] (pH 5.5, 665 nm) worked out at 220 ± 20 s⁻¹; on di-Zn(II) VIM-2 [7] (pH 6.5, 665 nm), 320 ± 80 s⁻¹; on di-Fe(II) BcII [8] (pH 6.5, 665 nm), 18.31 ± 0.01 s⁻¹; on di-Fe(II) BcII [8] (pH 7.5, 665 nm), 20.32 ± 0.01 s⁻¹. The k1 on di-Fe(II) BcII [8] (setting [11]) is on record as 239000; on di-Fe(II) BcII [8] (setting [12]), 225000. Further, the k2 is reported as 46 on di-Fe(II) BcII [8] (setting [11]) and 82.7 at di-Fe(II) BcII [8] (setting [12]). Besides, the k3 at di-Fe(II) BcII [8] (setting [11]) is given as 73.4; on di-Fe(II) BcII [8] (Kintek Explorer fit, linear mechanism, pH 7.5, 5°C, intermediate decay, rate-limiting), 7.2. The k-1 at di-Fe(II) BcII [8] (setting [11]) stood at 0.0000001; at di-Fe(II) BcII [8] (setting [12]), 0.000000403. Besides, the k5 at di-Fe(II) BcII [8] (Kintek Explorer fit, branched mechanism, pH 7.5, 5°C, fixed) worked out at 100000000. Also, the k4 at di-Fe(II) BcII [8] (Kintek Explorer fit, branched mechanism, pH 7.5, 5°C, intermediate decay, rate-limiting) was 4.18; at di-Fe(II) BcII [8] (Kintek Explorer fit, linear mechanism, pH 7.5, 5°C, fixed), 100000000.

A word on the kcat/Km: it is the second-order rate constant that governs catalysis at low substrate concentration. Regarding di-Fe(II) BcII (Bacillus cereus), in series [9] (BcII Fe(II), [E] 2 nM, low O2), the Km is 11 ± 2 µM, the kcat is 12.5 s⁻¹ and the kcat/Km stood at 1.2e+06 M⁻¹ s⁻¹. In series [10] (BcII Fe(II), low O2), the Km is 230 ± 30 µM, the kcat is 38 ± 2 s⁻¹ and the kcat/Km was found to be 170000 M⁻¹ s⁻¹.

Regarding “di-Fe(II) VIM-2 (Pseudomonas aeruginosa)”, in [9] (VIM-2 Fe(II), [E] 1 nM, low O2), the Km came out at 32 ± 5 µM, the kcat was determined as 44 s⁻¹ and the kcat/Km was found to be 1.4e+06 M⁻¹ s⁻¹.

Consider di-Zn(II) BcII (Bacillus cereus), for which, in series [9] (BcII Zn(II), [E] 2 nM), the Km came to 12 ± 2 µM, the kcat was 10.1 s⁻¹ and the kcat/Km is 820000 M⁻¹ s⁻¹. Further, in series [10] (BcII Zn(II)), the Km turned out to be 220 ± 20 µM, the kcat was determined as 89 ± 3 s⁻¹ and the kcat/Km worked out at 400000 M⁻¹ s⁻¹.

Turning to “di-Zn(II) VIM-2 (Pseudomonas aeruginosa)”, in [9] (VIM-2 Zn(II), [E] 0.1 nM), the Km was 9 ± 1 µM, the kcat worked out at 143 s⁻¹ and the kcat/Km was determined as 1.6e+07 M⁻¹ s⁻¹.
